EC50 data for seven molecules are collected here from ChEMBL document CHEMBL1137190, “Synthesis and KCNQ2 opener activity of N-(1-benzo[1,3]dioxol-5-yl-ethyl, N-[1-(2,3-dihydro-benzofuran-5-yl)-ethyl, and N-[1-(2,3-dihydro-1H-indol-5-yl)-ethyl acrylamides” (Bioorg Med Chem Lett, 2004).

This experiment has as its system HEK293. The experiment is described as follows: Effective concentration against whole-cell patch clamp from […] HEK293 cells. It counts as functional, cell-based, Homo sapiens.

SMILES strings stand for the structures. pEC50: −log10 of the molar value.

As for `C[C@H](NC(=O)/C=C/c1ccccc1F)c1ccc2c(c1)N(CC1CC1)CCO2`, under “Homo sapiens, HEK293”, the pEC50 was 7.22. With `C[C@H](NC(=O)/C=C/c1ccccc1Cl)c1ccc2c(c1)OCO2`, the pEC50 (hek293) is 7.70. Take `C[C@H](NC(=O)/C=C/c1c(F)cccc1F)c1ccc2c(c1)CCO2`: where the note is “Homo sapiens, HEK293”, the pEC50 was 6.48. Still for that read-out and setting: the result for `C[C@H](NC(=O)/C=C/c1ccccc1)c1cccc(N2CCOCC2)c1` reads 5.49; that for `C[C@H](NC(=O)/C=C/c1ccccc1F)c1ccc2c(c1)CCN2`, 6.37. As to `C[C@H](NC(=O)/C=C/c1ccccc1Cl)c1ccc2c(c1)OCO2` (racemic), the pEC50 (hek293) was 7.15. As to `CCOC(=O)Nc1ccc(NCc2ccc(F)cc2)cc1N` [EZOGABINE], the pEC50 (Homo sapiens, HEK293) was 5.89.
